Laboratory results as given in PubChem BioAssay AID1259407 (Chemical Carcinogenesis Research Information System (CCRIS), 2018).
Activity calls are given as the source filed them. The rule behind the calls is not given here.

Test system: CCRIS mutagenicity, Ames/micronucleus/aberration tests
Assay: CCRIS mutagenicity studies
[1] = Test System: AMES SALMONELLA TYPHIMURIUM, Strain/Indicator: TA98, Metabolic Activation: NONE, Method: PREINCUBATION
[2] = Test System: AMES SALMONELLA TYPHIMURIUM, Strain/Indicator: TA100, Metabolic Activation: NONE, Method: PREINCUBATION
[3] = Test System: AMES SALMONELLA TYPHIMURIUM, Strain/Indicator: TA1535, Metabolic Activation: NONE, Method: PREINCUBATION

Measured: mutagenic call

C1CC2OC2CC1C1CO1 (stereo not drawn)
active: Test System: AMES SALMONELLA TYPHIMURIUM, Strain/Indicator: TA98, Metabolic Activation: HAMSTER, LIVER, S-9, AROCLOR 1254, Method: PREINCUBATION active; positive | [1] active; positive | Test System: AMES SALMONELLA TYPHIMURIUM, Strain/Indicator: TA98, Metabolic Activation: RAT, LIVER, S-9, AROCLOR 1254, Method: PREINCUBATION active; positive | Test System: AMES SALMONELLA TYPHIMURIUM, Strain/Indicator: TA100, Metabolic Activation: HAMSTER, LIVER, S-9, AROCLOR 1254, Method: PREINCUBATION active; positive | [2] active; positive | Test System: AMES SALMONELLA TYPHIMURIUM, Strain/Indicator: TA100, Metabolic Activation: RAT, LIVER, S-9, AROCLOR 1254, Method: PREINCUBATION active; positive | Test System: AMES SALMONELLA TYPHIMURIUM, Strain/Indicator: TA1535, Metabolic Activation: HAMSTER, LIVER, S-9, AROCLOR 1254, Method: PREINCUBATION active; positive | [3] active; positive | Test System: AMES SALMONELLA TYPHIMURIUM, Strain/Indicator: TA1535, Metabolic Activation: RAT, LIVER, S-9, AROCLOR 1254, Method: PREINCUBATION active; positive | Test System: AMES SALMONELLA TYPHIMURIUM, Strain/Indicator: TA1537, Metabolic Activation: HAMSTER, LIVER, S-9, AROCLOR 1254, Method: PREINCUBATION active; positive | Test System: AMES SALMONELLA TYPHIMURIUM, Strain/Indicator: TA1537, Metabolic Activation: RAT, LIVER, S-9, AROCLOR 1254, Method: PREINCUBATION active; positive | Test System: MOUSE LYMPHOMA, Strain/Indicator: L5178Y (TK+/TK-), Metabolic Activation: NONE, Method: SUSPENSION/PLATE active; positive

C/C=C1\CC(C)C(C)(OC(C)=O)C(=O)OCC2=C3C(CC[N+]3(C)C=C2)OC1=O (stereo not drawn)
active: Test System: AMES SALMONELLA TYPHIMURIUM, Strain/Indicator: TA100, Metabolic Activation: HAMSTER, LIVER, S-9, PCB, Method: PREINCUBATION active; positive | Test System: AMES SALMONELLA TYPHIMURIUM, Strain/Indicator: TA100, Metabolic Activation: RAT, LIVER, S-9, PCB, Method: PREINCUBATION active; positive

CC(=O)O[C@H]1[C@H](OC23C=C(C)C4(CC4)C(C)(O)C2C(=O)C(C)(C)C3)O[C@H](CO)[C@@H](OC(=O)/C=C\c2ccc(O)cc2)[C@@H]1O (stereo partly drawn)
active: [1] active; positive | [2] active; positive

COCC(O)Cn1ccnc1[N+](=O)[O-] (stereo not drawn)
active: Test System: E. COLI, Strain/Indicator: WP2 UVRA, Metabolic Activation: NONE, Method: STANDARD PLATE active; positive

O=C(Nc1cccc2c(=O)c3c(ccc4c5cc(NC(=O)c6ccccc6)c6c(=O)c7ccccc7c(=O)c6c5[nH]c43)c(=O)c12)c1ccccc1
active: Test System: Ames Salmonella typhimurium, Strain/Indicator: TA98, Metabolic Activation: None, Method: Preincubation active; positive
inactive: Test System: AMES SALMONELLA TYPHIMURIUM, Strain/Indicator: TA98, Metabolic Activation: HAMSTER, LIVER, S-9, AROCLOR 1254 (10%), Method: PREINCUBATION inactive; negative | [1] inactive; negative | Test System: AMES SALMONELLA TYPHIMURIUM, Strain/Indicator: TA98, Metabolic Activation: RAT, LIVER, S-9, AROCLOR 1254 (10%), Method: PREINCUBATION inactive; negative | Test System: AMES SALMONELLA TYPHIMURIUM, Strain/Indicator: TA100, Metabolic Activation: HAMSTER, LIVER, S-9, AROCLOR 1254 (10%), Method: PREINCUBATION inactive; negative | [2] inactive; negative | Test System: AMES SALMONELLA TYPHIMURIUM, Strain/Indicator: TA100, Metabolic Activation: RAT, LIVER, S-9, AROCLOR 1254 (10%), Method: PREINCUBATION inactive; negative | Test System: AMES SALMONELLA TYPHIMURIUM, Strain/Indicator: TA1535, Metabolic Activation: HAMSTER, LIVER, S-9, AROCLOR 1254 (10%), Method: PREINCUBATION inactive; negative | [3] inactive; negative | Test System: AMES SALMONELLA TYPHIMURIUM, Strain/Indicator: TA1535, Metabolic Activation: RAT, LIVER, S-9, AROCLOR 1254 (10%), Method: PREINCUBATION inactive; negative | Test System: AMES SALMONELLA TYPHIMURIUM, Strain/Indicator: TA1537, Metabolic Activation: HAMSTER, LIVER, S-9, AROCLOR 1254 (10%), Method: PREINCUBATION inactive; negative | Test System: AMES SALMONELLA TYPHIMURIUM, Strain/Indicator: TA1537, Metabolic Activation: NONE, Method: PREINCUBATION inactive; negative | Test System: AMES SALMONELLA TYPHIMURIUM, Strain/Indicator: TA1537, Metabolic Activation: RAT, LIVER, S-9, AROCLOR 1254 (10%), Method: PREINCUBATION inactive; negative | Test System: Ames Salmonella typhimurium, Strain/Indicator: TA100, Metabolic Activation: None, Method: Preincubation inactive; negative | Test System: Ames Salmonella typhimurium, Strain/Indicator: TA102, Metabolic Activation: None, Method: Preincubation inactive; negative | Test System: Ames Salmonella typhimurium, Strain/Indicator: TA1535, Metabolic Activation: None, Method: Preincubation inactive; negative
